Data taken from patent US9980943B2, “Methods of treating muscular dystrophy” (BOARD OF REGENTS OF THE NEVADA SYSTEM OF HIGHER EDUCATION, …, priority 2013, dated 2018).

Assays:
Format in all cases: cell-based, mouse
[1] = tested on: β-galactosidase in CMV-LacZ C2C12 myoblasts; assay: CMV-LacZ secondary screen in C2C12 myoblasts (β-Gal stabilizing assay); details: for CMV-LACZ in Myoblasts, value relative to DMSO: SU9516 analogs, C2C12 CMV-LacZ, N=2; for CMV-LACZ in Myoblasts (β-galactosidase activity relative to DMSO): CMV-LacZ C2C12 myoblasts
Summary of the method: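 β-Gal level was the read-out, measured in a clonal C2C12 line expressing LacZ from a CMV promoter. Dose-response curves used six concentrations, 0.5 μM up to 40 μM, with duplicate points.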

[2] = tested on: α7 integrin (LacZ reporter in α7+/LacZ myotubes); assay: Myotube α7 integrin FDG assay (Burkin assay in myotubes, 96-well); details: for Burkin Assay in Myotubes, value relative to DMSO: SU9516 analogs, 96-well, N=3-6
[3] = tested on: α7 integrin (LacZ reporter in α7βgal+/− myoblasts); assay: Myoblast α7+/LacZ integrin FDG assay (Burkin assay in myoblasts, 96-well); details: 96-well; for Burkin Assay in Myoblasts, value relative to DMSO: SU9516 analogs, N=3-6; for Burkin Assay in Myoblasts, signal relative to DMSO: α7+/LacZ myoblasts
[4] = tested on: β-galactosidase in CMV-LacZ C2C12 myotubes; assay: CMV-LacZ secondary screen in C2C12 myotubes (β-Gal stabilizing assay); details: for CMV-LACZ in Myotubes, value relative to DMSO: SU9516 analogs, C2C12 CMV-LacZ, N=2; for CMV-LACZ in Myotubes, signal relative to DMSO: C2C12 CMV-LacZ myotubes, fold relative to DMSO
Summary of the method: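 First, C2C12 myoblasts were transfected with a linearized CMV-LACZ vector and clonal lines selected by FDG β-gal assay. Then cells were exposed to compounds at 0.5, 1, 5, 10, 20 and 40 μM in 96-well format, two replicates each, and β-gal measured.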

Question: With `Cc1ccc(/C=C2\C(=O)Nc3ccccc32)o1` [MLS000391588-01] as the molecule, how does the “CMV-LACZ in Myoblasts, value relative to DMSO” value ([1]; 0.5 uM) read?
Answer: 1.0009

Question: What about the “CMV-LACZ in Myoblasts, value relative to DMSO” value ([1]; 1 uM) of the same molecule?
Answer: 0.7411

Question: What about the “CMV-LACZ in Myoblasts, value relative to DMSO” value ([1]; 5 uM) of the same molecule?
Answer: 0.9885

Question: What about the “CMV-LACZ in Myoblasts, value relative to DMSO” value ([1]; 10 uM) of the same molecule?
Answer: 1.0968

Question: And the “CMV-LACZ in Myoblasts, value relative to DMSO” value ([1]; 20 uM)?
Answer: 1.4307

Question: What about the “CMV-LACZ in Myoblasts, value relative to DMSO” value ([1]; 40 uM) of the same molecule?
Answer: 1.1119

Question: And the “Burkin Assay in Myotubes, value relative to DMSO” value ([2]; 0.5 uM)?
Answer: 1.073

Question: And the “Burkin Assay in Myotubes, value relative to DMSO” value ([2]; 1 uM)?
Answer: 0.9563

Question: What about the “Burkin Assay in Myotubes, value relative to DMSO” value ([2]; 5 uM) of the same molecule?
Answer: 0.8994

Question: And the “Burkin Assay in Myotubes, value relative to DMSO” value ([2]; 10 uM)?
Answer: 0.9356

Question: And the “Burkin Assay in Myotubes, value relative to DMSO” value ([2]; 20 uM)?
Answer: 0.7631

Question: And the “Burkin Assay in Myotubes, value relative to DMSO” value ([2]; 40 uM)?
Answer: 0.664

Question: And the “Burkin Assay in Myoblasts, value relative to DMSO” value ([3]; 0.5 uM)?
Answer: 1.07

Question: And the “Burkin Assay in Myoblasts, value relative to DMSO” value ([3]; 1 uM)?
Answer: 1.015

Question: And the “Burkin Assay in Myoblasts, value relative to DMSO” value ([3]; 5 uM)?
Answer: 0.9119

Question: And the “Burkin Assay in Myoblasts, value relative to DMSO” value ([3]; 10 uM)?
Answer: 0.8176

Question: And the “Burkin Assay in Myoblasts, value relative to DMSO” value ([3]; 20 uM)?
Answer: 0.7804

Question: And the “Burkin Assay in Myoblasts, value relative to DMSO” value ([3]; 40 uM)?
Answer: 0.3005

Question: What about the “CMV-LACZ in Myotubes, value relative to DMSO” value ([4]; 0.5 uM) of the same molecule?
Answer: 0.8400

Question: What about the “CMV-LACZ in Myotubes, value relative to DMSO” value ([4]; 1 uM) of the same molecule?
Answer: 1.0010

Question: What about the “CMV-LACZ in Myotubes, value relative to DMSO” value ([4]; 5 uM) of the same molecule?
Answer: 1.0019

Question: What about the “CMV-LACZ in Myotubes, value relative to DMSO” value ([4]; 10 uM) of the same molecule?
Answer: 0.9740

Question: What about the “CMV-LACZ in Myotubes, value relative to DMSO” value ([4]; 20 uM) of the same molecule?
Answer: 0.9212

Question: And the “CMV-LACZ in Myotubes, value relative to DMSO” value ([4]; 40 uM)?
Answer: 0.9094

Question: Which results are given for `CC(C)(C)c1ccc(C(=O)OCC(=O)Nc2sc3c(c2C#N)CCC3)cc1` [MLS000392555-01]?
Answer: CMV-LACZ in Myoblasts (β-galactosidase activity relative to DMSO) ([1]; 0.5 uM): 0.8954; CMV-LACZ in Myoblasts (β-galactosidase activity relative to DMSO) ([1]; 1 uM): 0.7638; CMV-LACZ in Myoblasts (β-galactosidase activity relative to DMSO) ([1]; 5 uM): 0.9342; CMV-LACZ in Myoblasts (β-galactosidase activity relative to DMSO) ([1]; 10 uM): 0.9799; CMV-LACZ in Myoblasts (β-galactosidase activity relative to DMSO) ([1]; 20 uM): 0.9559; CMV-LACZ in Myoblasts (β-galactosidase activity relative to DMSO) ([1]; 40 uM): 1.2007; Burkin Assay in Myotubes, α7 integrin LacZ reporter signal relative to DMSO ([2]; 0.5 uM): 0.9647; Burkin Assay in Myotubes, α7 integrin LacZ reporter signal relative to DMSO ([2]; 1 uM): 0.9664; Burkin Assay in Myotubes, α7 integrin LacZ reporter signal relative to DMSO ([2]; 5 uM): 1.105; Burkin Assay in Myotubes, α7 integrin LacZ reporter signal relative to DMSO ([2]; 10 uM): 0.9741; Burkin Assay in Myotubes, α7 integrin LacZ reporter signal relative to DMSO ([2]; 20 uM): 0.935; Burkin Assay in Myotubes, α7 integrin LacZ reporter signal relative to DMSO ([2]; 40 uM): 0.9301; Burkin Assay in Myoblasts, signal relative to DMSO ([3]; 0.5 uM): 1.2055; Burkin Assay in Myoblasts, signal relative to DMSO ([3]; 1 uM): 1.101; Burkin Assay in Myoblasts, signal relative to DMSO ([3]; 5 uM): 1.3; Burkin Assay in Myoblasts, signal relative to DMSO ([3]; 10 uM): 0.9734; Burkin Assay in Myoblasts, signal relative to DMSO ([3]; 20 uM): 1.314; Burkin Assay in Myoblasts, signal relative to DMSO ([3]; 40 uM): 1.226; CMV-LACZ in Myotubes, signal relative to DMSO ([4]; 0.5 uM): 1.0257; CMV-LACZ in Myotubes, signal relative to DMSO ([4]; 1 uM): 0.9676; CMV-LACZ in Myotubes, signal relative to DMSO ([4]; 5 uM): 1.0094; CMV-LACZ in Myotubes, signal relative to DMSO ([4]; 10 uM): 0.8568; CMV-LACZ in Myotubes, signal relative to DMSO ([4]; 20 uM): 1.1537; CMV-LACZ in Myotubes, signal relative to DMSO ([4]; 40 uM): 0.9326

Question: Which “CMV-LACZ in Myoblasts (β-galactosidase activity relative to DMSO)” value ([1]; 0.5 uM) does the source give for `CCOc1ccccc1NC(=O)COC(=O)CNS(=O)(=O)c1ccc(C)cc1` [MLS000393567-01] here?
Answer: 1.2117

Question: What about the “CMV-LACZ in Myoblasts (β-galactosidase activity relative to DMSO)” value ([1]; 1 uM) of the same molecule?
Answer: 1.1373

Question: What about the “CMV-LACZ in Myoblasts (β-galactosidase activity relative to DMSO)” value ([1]; 5 uM) of the same molecule?
Answer: 0.6593

Question: What about the “CMV-LACZ in Myoblasts (β-galactosidase activity relative to DMSO)” value ([1]; 10 uM) of the same molecule?
Answer: 0.8148

Question: And the “CMV-LACZ in Myoblasts (β-galactosidase activity relative to DMSO)” value ([1]; 20 uM)?
Answer: 1.0175

Question: And the “CMV-LACZ in Myoblasts (β-galactosidase activity relative to DMSO)” value ([1]; 40 uM)?
Answer: 1.1319

Question: And the “Burkin Assay in Myotubes, α7 integrin LacZ reporter signal relative to DMSO” value ([2]; 0.5 uM)?
Answer: 0.8882

Question: What about the “Burkin Assay in Myotubes, α7 integrin LacZ reporter signal relative to DMSO” value ([2]; 1 uM) of the same molecule?
Answer: 0.9953

Question: What about the “Burkin Assay in Myotubes, α7 integrin LacZ reporter signal relative to DMSO” value ([2]; 5 uM) of the same molecule?
Answer: 0.9065

Question: What about the “Burkin Assay in Myotubes, α7 integrin LacZ reporter signal relative to DMSO” value ([2]; 10 uM) of the same molecule?
Answer: 0.8857

Question: What about the “Burkin Assay in Myotubes, α7 integrin LacZ reporter signal relative to DMSO” value ([2]; 20 uM) of the same molecule?
Answer: 0.8607

Question: And the “Burkin Assay in Myotubes, α7 integrin LacZ reporter signal relative to DMSO” value ([2]; 40 uM)?
Answer: 0.9237

Question: What about the “Burkin Assay in Myoblasts, signal relative to DMSO” value ([3]; 0.5 uM) of the same molecule?
Answer: 1.032

Question: And the “Burkin Assay in Myoblasts, signal relative to DMSO” value ([3]; 1 uM)?
Answer: 1.051

Question: And the “Burkin Assay in Myoblasts, signal relative to DMSO” value ([3]; 5 uM)?
Answer: 0.9724

Question: What about the “Burkin Assay in Myoblasts, signal relative to DMSO” value ([3]; 10 uM) of the same molecule?
Answer: 0.9325

Question: And the “Burkin Assay in Myoblasts, signal relative to DMSO” value ([3]; 20 uM)?
Answer: 0.8334

Question: What about the “Burkin Assay in Myoblasts, signal relative to DMSO” value ([3]; 40 uM) of the same molecule?
Answer: 0.8705

Question: And the “CMV-LACZ in Myotubes, signal relative to DMSO” value ([4]; 0.5 uM)?
Answer: 1.0400

Question: What about the “CMV-LACZ in Myotubes, signal relative to DMSO” value ([4]; 1 uM) of the same molecule?
Answer: 0.9524

Question: What about the “CMV-LACZ in Myotubes, signal relative to DMSO” value ([4]; 5 uM) of the same molecule?
Answer: 0.9322

Question: And the “CMV-LACZ in Myotubes, signal relative to DMSO” value ([4]; 10 uM)?
Answer: 0.9858

Question: What about the “CMV-LACZ in Myotubes, signal relative to DMSO” value ([4]; 20 uM) of the same molecule?
Answer: 1.0160

Question: What about the “CMV-LACZ in Myotubes, signal relative to DMSO” value ([4]; 40 uM) of the same molecule?
Answer: 0.9100
